The source of these data is ChEMBL document CHEMBL1154401, “Therapeutic effect of nisin Z on subclinical mastitis in lactating cows” (Antimicrob Agents Chemother, 2007).

For data set [1], the system named is Bos taurus. Description: Antiinflammatory activity in lactating Holstein bovine subclinical mastitis model assessed as reduction in number of mammary gland quarters with somatic cell count of >=5X10'5/ml at 2.5X10'6 IU, intramammary dosed after morning milking measured after 1 week. In kind it is functional. More on the design: scale not given: the % may be the effect or the level left.

In data set [2] the test system is Bos taurus. The data set can be described thus: Antiinflammatory activity in lactating Holstein bovine subclinical mastitis model assessed as reduction in number of mammary gland quarters with somatic cell count of >=5X10'5/ml at 2.5X10'6 IU, intramammary dosed after morning milking measured after 2 weeks. In kind it is functional. More on the design: scale not given: the % may be the effect or the level left.

Data set [3] has as its system Bos taurus. The data set can be described thus: Antiinflammatory activity in lactating Holstein bovine subclinical mastitis model assessed as reduction in N-acetyl-beta-D-[…] activity at 2.5X10'6 IU, intramammary dosed after morning milking measured after 1 week. In kind it is functional.
In data set [4] the test system is Bos taurus. The data set can be described thus: Antiinflammatory activity in lactating Holstein bovine subclinical mastitis model assessed as reduction in N-acetyl-beta-D-[…] activity at 2.5X10'6 IU, intramammary dosed after morning milking measured after 2 weeks. In kind it is functional.
For data set [5], the system named is Staphylococcus aureus. Description: Antibacterial activity against Staphylococcus aureus in lactating Holstein bovine subclinical mastitis model assessed as reduction in intramammary infections at 2.5X10'6 IU, intramammary dosed after morning milking relative to control. In kind it is functional. Details: scale not given: the % may be the effect or the level left.

In another data set the test system is Streptococcus agalactiae. The data set can be described thus: Antibacterial activity against Streptococcus agalactiae in lactating Holstein bovine subclinical mastitis model assessed as reduction in intramammary infections at 2.5X10'6 IU, intramammary dosed after morning milking relative to control. More on the design: scale not given: the % may be the effect or the level left. In kind it is functional.

For data set [6], the system named is Staphylococcus aureus. The data set can be described thus: Antibacterial activity against Staphylococcus aureus isolated from milk of Holstein bovine subclinical mastitis model after 2 hrs. In kind it is functional.
The subject of the next data set is Staphylococcus. The data set can be described thus: Antibacterial activity against coagulase-negative Staphylococcus infected in lactating Holstein bovine subclinical mastitis model assessed as reduction in intramammary infections at 2.5X10'6 IU, intramammary dosed after morning milking relative to control. In kind it is functional. More on the design: scale not given: the % may be the effect or the level left.

For data set [7], the system named is Staphylococcus aureus. The data set can be described thus: Sensitivity of Staphylococcus aureus isolated from lactating Holstein bovine subclinical mastitis model at 30 ug/disk after 20 hrs. In kind it is functional. Conditions: read-out: IZ.
The test system of data set [8] is Staphylococcus aureus. Description: Resistance of Staphylococcus aureus isolated from lactating Holstein bovine subclinical mastitis model at 30 ug/disk after 20 hrs. In kind it is functional.
Data set [9] has as its system Staphylococcus aureus. Description: Sensitivity of Staphylococcus aureus isolated from lactating Holstein bovine subclinical mastitis model at 10 ug/disk after 20 hrs. In kind it is functional. To be noted: read-out: IZ.
The test system of data set [10] is Staphylococcus aureus. Description: Resistance of Staphylococcus aureus isolated from lactating Holstein bovine subclinical mastitis model at 10 ug/disk after 20 hrs. In kind it is functional.
In data set [11] the test system is Bos taurus. The data set can be described thus: Toxicity in intramammary dosed Holstein bovine assessed as increase in somatic cell count in dosed after morning milking by irritancy test. In kind it is organism-based. To be noted: cattle, other.
For data set [12], the system named is Bos taurus. The data set can be described thus: Toxicity in intramammary dosed Holstein bovine assessed as increase in N-acetyl-beta-D-[…] in milk dosed after morning milking by irritancy test. In kind it is organism-based. Conditions: cattle, in vivo, other.
Data set [13] concerns Bos taurus. Description: Toxicity in Holstein bovine assessed as visible local reaction at 1.25X10'6 IU, intramammary dosed in left hindquarter of mammary gland after morning milking by irritancy test. In kind it is organism-based. Conditions: cattle, in vivo, other.
The subject of data set [14] is Bos taurus. Description: Toxicity in Holstein bovine assessed as decreased milk yeild at 1.25X10'6 IU, intramammary dosed in left hindquarter of mammary gland of mammary gland after morning milking by irritancy test. In kind it is organism-based. To be noted: cattle, in vivo, other.
Data set [15] concerns Bos taurus. Description: Toxicity in Holstein bovine assessed as visible local reaction at 2.5X10'6 IU, intramammary dosed in right hindquarter of mammary gland after morning milking by irritancy test. In kind it is organism-based. To be noted: cattle, in vivo, other.
For data set [16], the system named is Bos taurus. The data set can be described thus: Toxicity in Holstein bovine assessed as decreased milk yeild at 2.5X10'6 IU, intramammary dosed in right hindquarter of mammary gland after morning milking by irritancy test. In kind it is organism-based. Conditions: cattle, in vivo, other.
Data set [17] deals with Bos taurus. The data set can be described thus: Toxicity in Holstein bovine assessed as visible local reaction with swollen and tender mammary gland at 5X10'6 IU, intramammary dosed in right forequarter of mammary gland after morning milking by irritancy test. To be noted: cattle, in vivo, other. In kind it is organism-based.
Data set [18] deals with Bos taurus. Description: Toxicity in Holstein bovine assessed as decreased milk yeild with clots and flakes in milk at 5X10'6 IU, intramammary dosed in right forequarter of mammary gland after morning milking by irritancy test. In kind it is organism-based. Conditions: cattle, in vivo, other.
Data set [19] relates to Bos taurus. The data set can be described thus: Toxicity in Holstein bovine assessed as visible local reaction at 5X10'6 IU, intramammary dosed in right forequarter of mammary gland after morning milking after 24 hrs by irritancy test. In kind it is organism-based. To be noted: cattle, in vivo, other.
A short description of data set [20]: Drug level in milk of lactating Holstein bovine mastitis model at 2.5X10'6 IU, intramammary administered once daily for 3 days measured after 24 hrs. In kind it is ADME, Bos taurus. Conditions: cattle, other.
Data set [21] is described as follows: Drug level in milk of lactating Holstein bovine mastitis model at 2.5X10'6 IU, intramammary administered once daily for 3 days measured after 48 hrs. In kind it is ADME, Bos taurus. To be noted: cattle, other.
Data set [22] is described as follows: Drug level in milk of lactating bovine subclinical mastitis model at 2.5X10'6 IU after 24 hrs. In kind it is ADME, Bos taurus. To be noted: cattle.
A short description of data set [23]: Drug level in milk of lactating bovine subclinical mastitis model at 2.5X10'6 IU after 48 hrs. In kind it is ADME, Bos taurus. To be noted: cattle.
Data set [24] is described as follows: Drug level in milk of lactating bovine clinical mastitis model at 2.5X10'6 IU, intramammary dosed twice daily for 3 days measured after 12 hrs. Conditions: cattle, in vivo, other. In kind it is ADME, organism-based, Bos taurus.
Data set [25] deals with Staphylococcus aureus. The data set can be described thus: Sensitivity of Staphylococcus aureus isolated from lactating Holstein bovine subclinical mastitis model at 5 ug/disk after 20 hrs. In kind it is functional. Conditions: read-out: IZ.
The test system of data set [26] is Staphylococcus aureus. Description: Resistance of Staphylococcus aureus isolated from lactating Holstein bovine subclinical mastitis model at 5 ug/disk after 20 hrs. In kind it is functional.
Setting [27] is: Staphylococcus aureus, 20 h, read-out: IZ.

With `C=C(NC(=O)[C@@H](NC(=O)[C@H](Cc1cnc[nH]1)NC(=O)[C@@H](NC(=O)[C@H](CO)NC(=O)[C@@H]1CS[C@@H](C)[C@H]2NC(=O)[C@H](C)NC(=O)[C@H](NC(=O)[C@H](CCCCN)NC(=O)[C@H](CCSC)NC(=O)[C@H](CC(N)=O)NC(=O)[C@@H]3CS[C@@H](C)[C@@H](NC(=O)[C@H](CCCCN)NC(=O)[C@@H]4CS[C@@H](C)[C@@H](NC(=O)[C@@H]5CSC[C@@H](NC(=O)/C(=C/C)NC(=O)[C@@H](N)[C@@H](C)CC)C(=O)N[C@@H]([C@@H](C)CC)C(=O)NC(=C)C(=O)N[C@@H](CC(C)C)C(=O)N5)C(=O)N5CCC[C@H]5C(=O)NCC(=O)N4)C(=O)NCC(=O)N[C@@H](C)C(=O)N[C@@H](CC(C)C)C(=O)N[C@@H](CCSC)C(=O)NCC(=O)N3)[C@H](C)SC[C@H](NC2=O)C(=O)N[C@@H](CC(N)=O)C(=O)N1)[C@@H](C)CC)C(C)C)C(=O)N[C@@H](CCCCN)C(=O)O`, the Activity with Bos taurus [1] came out at 58.7%; in the data set with Bos taurus [2], 70.5%; in the data set on Bos taurus [3] it was 26.2 U/ml; in the data set on Bos taurus [4], 28.9 U/ml; in the data set on Staphylococcus aureus [5] it was 50%; in the data set on Streptococcus agalactiae, 90.9%. For the same compound, the Activity in the data set on Staphylococcus came out at 58.8%. The MIC against Staphylococcus aureus [6] was found to be 75.5 IU/ml.
Regarding `Cc1nnc(SCC2=C(C(=O)O)N3C(=O)[C@@H](NC(=O)Cn4cnnn4)[C@H]3SC2)s1` [CEFAZOLIN], the zone of inhibition at 30 µg/disc was not below 18 mm in the data set with Staphylococcus aureus [7] and not above 14 mm with Staphylococcus aureus [8] (setting [27]). The Activity in the data set on Staphylococcus aureus [8] is recorded as 5%.
Take `CC1(C)S[C@@H]2[C@H](NC(=O)Cc3ccccc3)C(=O)N2[C@H]1C(=O)O` [PENICILLIN G]: the zone of inhibition at 10 µg/disc was not below 29 mm in the data set on Staphylococcus aureus [9] and not above 28 mm in the data set with Staphylococcus aureus [10] (setting [27]). In the data set with Staphylococcus aureus [10], the Activity was 80%.
On to `C=C(NC(=O)[C@@H](NC(=O)[C@H](Cc1c[nH]cn1)NC(=O)[C@@H](NC(=O)[C@H](CO)NC(=O)[C@@H]1CS[C@@H](C)[C@H]2NC(=O)[C@H](C)NC(=O)[C@H](NC(=O)[C@H](CCCCN)NC(=O)[C@H](CCSC)NC(=O)[C@H](CC(N)=O)NC(=O)[C@@H]3CS[C@@H](C)[C@@H](NC(=O)[C@H](CCCCN)NC(=O)[C@@H]4CS[C@@H](C)[C@@H](NC(=O)[C@@H]5CSC[C@@H](NC(=O)/C(=C/C)NC(=O)[C@@H](N)[C@@H](C)CC)C(=O)N[C@@H]([C@@H](C)CC)C(=O)NC(=C)C(=O)N[C@@H](CC(C)C)C(=O)N5)C(=O)N5CCC[C@H]5C(=O)NCC(=O)N4)C(=O)NCC(=O)N[C@@H](C)C(=O)N[C@@H](CC(C)C)C(=O)N[C@@H](CCSC)C(=O)NCC(=O)N3)[C@H](C)SC[C@H](NC2=O)C(=O)N[C@@H](CC(N)=O)C(=O)N1)[C@@H](C)CC)C(C)C)C(=O)N[C@@H](CCCCN)C(=O)O`, for which the Activity result in the data set on Bos taurus [11] is on record as “Dose-dependent effect”; in the data set on Bos taurus [12] it was “Dose-dependent effect”; in the data set with Bos taurus [13] it was “Non-toxic”; in the data set on Bos taurus [14], “Non-toxic”; in the data set with Bos taurus [15], “Non-toxic”; in the data set on Bos taurus [16], “Non-toxic”. The Activity result in the data set with Bos taurus [17] is reported as “Toxic”; in the data set with Bos taurus [18], “Toxic”; in the data set with Bos taurus [19] it was “Toxic”; in data set [22] it was 83 IU/ml. In addition, the Drug uptake in data set [20] is listed as 75.8 IU/ml; in data set [21], 5.7 IU/ml; in data set [23], 15 IU/ml; in [24], 4.5 IU/ml.
GENTAMICIN: in the data set with Staphylococcus aureus [10], the Activity is 45%.
Consider `CCn1cc(C(=O)O)c(=O)c2cc(F)c(N3CCNCC3)cc21` [NORFLOXACIN], for which the values for the zone of inhibition at 5 µg/disc in the data set with Staphylococcus aureus [25] and with Staphylococcus aureus [26] (setting [27]) were not below 17 mm and not above 12 mm, respectively. The Activity in the data set on Staphylococcus aureus [26] was 75%.
